The record followed here is patent US20220257629A1, “COMPOSITIONS AND METHODS FOR UPREGULATION OF HUMAN FETAL HEMOGLOBIN” (THE UAB RESEARCH FOUNDATION, priority 2019, published 2022).

In assay [1] the test system is human CD34+-differentiated erythroid cells. As to the kind of experiment: Library screen, RT-PCR of γ- and β-globin expression. Type of assay: cell-based. How it is done:
(§1) Briefly, for the screen, 5×10^5 CD34^+ cells were expanded for six days in StemSpan SFEM medium (StemCell Technologies Inc., Vancouver, Canada) with SCF, IL-3, TPO and Flt-3 ligand. After expansion, 100,000 cells were distributed to each well (in a 24-well plate) and grown in SFEM medium with 2% P/S, 20 ng/ml SCF, 1 U/ml Epo, 5 ng/ml IL-3, 2 μM dexamethasone, and 1 μM β-estradiol. Individual small molecules were added to each well. Cells were differentiated for another nine days (for RNA analysis) or fourteen days (for hemoglobin analysis). The γ- and β-globin expression in each sample were analyzed by RT-PCR or HPLC.

For assay [2] the test system is unchanged. As to the kind of experiment: HPLC hemoglobin analysis. The class given is cell-based. To be noted: 0.3 or 0.65 μM, compared to DMSO treated cells (FIG. 2). The method, then: as §1
The test system is the same in assay [3]. As to the kind of experiment: Isoelectric focusing gel of the samples analyzed by HPLC. The class given is cell-based. The conditions noted are these: idoxuridine 0.3 and 0.65 μM (FIG. 4).
The test system is the same in assay [4]. As to the kind of experiment: FACS analysis of fetal hemoglobin expressing erythroid cells (F cells). Type of assay: cell-based. The conditions noted are these: 0.3, 0.5 or 0.7 μM, 14 days, compared to DMSO control (FIG. 1). An excerpt:
For fetal hemoglobin analysis, one million erythroid cells, differentiated for 14 days with or without idoxuridine in the medium, were washed with PBS that included 0.1% BSA, and fixed in 0.05% Glutaraldehyde (Sigma, G5882, St. Louis, Mo.). The fixed cells were washed three times with PBS that included 0.1% BSA, followed by permeabilization in 1% Triton X-100 (Life Technologies, HFH-10, Carlsbad, Calif.), before immunostaining with an antibody directed against HbF (Invitrogen, MHFH04, Carlsbad, Calif.).

For assay [5] the test system is unchanged. Briefly: Western blot analysis of KLF1, BCL11A and LRF. The class given is cell-based. To be noted: 0.7 uM, 7 days, compared to DMSO (FIG. 5). The method, then: To analyze the expression of KLF1, BCL11A and LRF by Western blot, whole cell extracts were prepared from erythroid cells differentiated for seven days with DMSO or 0.7 uM of idoxuridine. Antibodies used included Actb (Santa Cruz, sc-47778 HRP, Dallas, Tex.), KLF1 (Santa Cruz, sc-14034), BCL11A (Abcam, ab19489, Cambridge, UK) and LRF (Abcam, ab175918).
(Immunoblotting shows a protein as a band on a membrane.)

Assay [6] relates to human β-globin BAC transgenic mice. As to the kind of experiment: In vivo globin gene expression by qRT-PCR. More on the design: species or system mouse. The conditions noted are these: 100 mg/kg daily intraperitoneal injections for four weeks, blood, qRT-PCR (FIG. 6). The method, then:
To test if idoxuridine can induce mouse Ey2 and human γ-globin expression in human β-BAC transgenic mice, 100 mg/kg body weight of Idoxuridine were injected intraperitoneally (IP) into mice for 4 weeks. Blood samples were obtained at the end of Idoxuridine treatment and cDNAs were synthesized. Mouse Ey2 and human γ-globin expression were analyzed by qRT-PCR.
On the technique in general: In qPCR the cycle at which signal appears reflects the starting amount.

Assay [7] has as its system human CD34+-differentiated erythroid cells. Briefly: RNAseq gene expression. The class given is cell-based.
The mark [8] stands for this setting: human CD34+-differentiated erythroid cells.

For the molecule `O=c1[nH]c(=O)n([C@H]2C[C@H](O)[C@@H](CO)O2)cc1C(F)(F)F` [Trifluridine, trifluridine], the “HbF expression in a drug screen” value in assay [1] is recorded as “potent inducers”. In addition, the “γ-globin gene expression in the original screen” value in assay [1] (original screen) was “reactivated”.
Consider `O=c1[nH]c(=O)n([C@H]2C[C@H](O)[C@@H](CO)O2)cc1I` [Idoxuridine, idoxuridine], for which the “fetal hemoglobin (HPLC)” value in assay [2] is “significantly increases”. Also, the “HbF expression (isoelectric focusing gel)” value in assay [3] is “upregulated”. For the same molecule, the “number of erythroid cells expressing fetal hemoglobin (F cells)” value in assay [4] is “increases”. Besides, in assay [5], the “BCL11A expression (Western blot)” value is “decreases” and the “KLF1 expression (Western blot)” value is on record as “decreases”. Also, the “HbF expression in a drug screen” value in assay [1] is reported as “potent inducers”. In addition, in assay [1] (setting [8]), the “HbF expression (reverse transcriptase-PCR)” value is “upregulates”. In addition, in assay [1] (human CD34+-differentiated erythroid cells contacted with idoxuridine), the γ-globin expression result is “significantly increased”. Moreover, in assay [6], the “human γ-globin gene expression” value is “increased” and the “mouse Ey-2 gene expression” value is listed as “increased”. For the same molecule, the ε-globin gene expression entry in assay [7] (Table 1) is reported as “reactivated”. Besides, in assay [7] (gene BCL11A, idoxuridine treated cells), the “RNAseq expression, BCL11A” value is reported as 478.2. Besides, the “Fold change, BCL11A” value in assay [7] (gene BCL11A, idoxuridine vs DMSO control) is 0.303. Further, the “RNAseq expression, HBB” value in assay [7] (gene HBB, idoxuridine treated cells) is recorded as 20938. The “Fold change, HBB” value in assay [7] (gene HBB, idoxuridine vs DMSO control) worked out at 0.2. In addition, the “RNAseq expression, HBD” value in assay [7] (gene HBD, idoxuridine treated cells) is 1798. Besides, in assay [7] (gene HBD, idoxuridine vs DMSO control), the “Fold change, HBD” value turned out to be 0.16. The “RNAseq expression, HBE1” value in assay [7] (gene HBE1, idoxuridine treated cells) worked out at 17051. Besides, the “Fold change, HBE1” value in assay [7] (gene HBE1, idoxuridine vs DMSO control) was found to be 560. Besides, in assay [7] (gene HBG1, idoxuridine treated cells), the “RNAseq expression, HBG1” value is 18815. The “Fold change, HBG1” value in assay [7] (gene HBG1, idoxuridine vs DMSO control) is given as 8.19. In addition, the “RNAseq expression, HBG2” value in assay [7] (gene HBG2, idoxuridine treated cells) is 980. In addition, the “Fold change, HBG2” value in assay [7] (gene HBG2, idoxuridine vs DMSO control) was determined as 6. Moreover, in assay [7] (gene SOX6, idoxuridine treated cells), the “RNAseq expression, SOX6” value was 13. Also, the “Fold change, SOX6” value in assay [7] (gene SOX6, idoxuridine vs DMSO control) is listed as 0.25. In assay [7] (setting [8]), the “BCL11A mRNA expression” value is reported as “decreased” and the “KLF1 mRNA expression” value is “decreased”.
